In patent publication US8473035B2, “Medical imaging systems” (Beth Israel Deaconess Medical Center, priority 2003, dated 2013):

Assays:
[1] = test system: mitochondria and/or endoplasmic reticulum; assay: partitioning of the dye into subcellular organelles; assay type: cell-based
Description: (§1) More generally, IR-786 may be used for non-radioactive imaging of areas of ischemia in the living heart, or other visualization of the viability of other tissues.

blood flow in the heart = assay: imaging of blood flow in the heart of a living laboratory rat after a thoracotomy; assay type: in vivo
Description: as §1

[2] = solubility of the dye in blood
[3] = in vivo early half-life of the dye; details: small molecule form
Description: This permits multiple injections during a single procedure.

| SMILES | partitioning into mitochondria and/or endoplasmic reticulum [1] | imaging of blood flow in the heart (blood flow in the heart) | solubility in blood [2] | in vivo early half-life [3] |
| --- | --- | --- | --- | --- |
| CN1C(=CC=C2CCCC(C=CC3=[N+](C)c4ccccc4C3(C)C)=C2Cl)C(C)(C)c2ccccc21.[O-][Cl+3]([O-])([O-])[O-] [IR-786] | partitions efficiently into mitochondria and/or endoplasmic reticulum in a concentration-dependent manner | successfully applied |  |  |
| CC1(C)C(/C=C/C=C/C=C/C=C2\N(CCCCS(=O)(=O)O)c3ccc4ccccc4c3C2(C)C)=[N+](CCCCS(=O)(=O)[O-])c2ccc3ccccc3c21 [Indocyanine green, indocyanine green] |  |  | somewhat less soluble in blood | shorter half-life |
